Reference: patent EP4595964A1, “TREATMENT OF GM1 GANGLIOSIDOSIS” (Azafaros B.V., priority 2024, dated 2025)

Tests used:
[1] = system: GLB1-null Ex 2-3 cerebral organoids; type: cell-based, human
[2] = system: GLB1-null Ex 2-3 cerebral organoids; assay: Neuronal survival and health in the human brain organoid model of GM1 gangliosidosis; type: cell-based; details: 5 nM, 500 nM; concomitant with the GM1 reduction
[3] = system: control or GLB1-null cerebral organoids; assay: Cellularity test in cerebral organoids; type: cell-based, human; details: any timepoint, 5 nM, 500 nM

What does the source list for `OC[C@H]1[C@@H](O)[C@H](O)[C@@H](O)CN1CCCCCOCc1ccc(-c2ccccc2)c(F)c1` [nizubaglustat]?
GM1 accumulation ([1]; 5 nM, 500 nM, weeks 18, 20 and 24, dose-dependent fashion, GLB1-null Ex 2-3 cerebral organoids): significantly reduced; level of GLB1 in the EX 2-3 cell line ([1]; Week 24, representative images (Figure 4 top panel), green stain): significantly reduces; reduced the level of GM1 ganglioside ([1]; after 24 weeks of regular (2-3 times per week) administration): at least 2 fold; neuronal survival and health [2]: increased; cellularity [3]: did not reduce
